Results on two molecules are retold here after patent US20220249576A1 (priority 2021, published 2022).

Test [1] has as its system Aspergillus endosomal development. The conditions noted are these: previously observed; cited from earlier work.
Test [2] relates to A. flavus. Format: cell-based, Aspergillus flavus.

As for `CCCCC[C@@H](O)[C@H]1C(=O)O[C@H](C)[C@@H](O)/C=C/C=C/C=C/C=C/C=C(\C)[C@@H](O)C[C@H](O)C[C@H](O)C[C@H](O)C[C@H](O)C[C@H](O)C[C@@H]1O` [filipin], the “minimal inhibitory concentration (MIC) for disruption of Aspergillus endosomal development” value in test [1] is 3 µM.

For `C[C@@H]1C/C=C/C=C/C=C/C=C/[C@H](O[C@@H]2O[C@H](C)[C@@H](O)[C@H](N)[C@@H]2O)C[C@@H]2O[C@](O)(C[C@@H](O)C[C@H]3O[C@@H]3/C=C/C(=O)O1)C[C@H](O)[C@H]2C(=O)O` [natamycin], in test [2], the “aflatoxin levels compared to the filipin treated samples” value is listed as “significantly greater increase” and the “aflatoxin production compared to untreated control (A. flavus + the exemplary composition)” value was “increase aflatoxin production”. Moreover, the “minimal inhibitory concentration (MIC) for disruption of Aspergillus endosomal development” value in test [1] is 6 µM.
